Measurements reported in patent US11207310B2 (PRILENIA NEUROTHERAPEUTICS LTD., priority 2016, dated 2021).
Like-named read-outs stand apart in the source and are kept apart here.

Columns and labels:
patients with HD [1] = details: Week 26
Source text: The TFA scale of the UHDRS assessed functionality in 25 tasks of daily living (e.g., “Could patient engage in gainful employment in his/her accustomed work?”). Each question was answered with ‘yes’ or ‘no.

patients with HD [2] = details: early HD, week 52
patients with HD [3] = tested on: patients with HD;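 on Change from baseline in mPPT Total Score: modified Physical Performance Test: standardized 9-item rating of physical functional tasks, scored on speed and accuracy, maximum 36, higher score means better performance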;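 on Δ to placebo: mPPT total score, change from baseline: modified Physical Performance Test: standardized 9-item rating of physical functional tasks, scored on speed and accuracy, maximum 36, higher score means better performance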
Source text: The mPPT quantifies the patient's performance in physical tasks (Brown 2000). It is a standardized 9-item test (standing static balance, chair rise, lift a book and put it on a shelf, put on and remove a jacket, pick up a penny from floor, turn 360 degrees, 50 feet walk, climb one flight of stairs, climb stairs test (flights up and down)), that measures the patient's performance on functional tasks. Both the speed and accuracy at which the patients complete the items are taken into account during scoring. The maximum score of the test is 36, with higher scores indicating better performance.
The secondary efficacy variable and endpoint, the Modified Physical Performance Test (mPPT), quantifies the patient's performance in physical tasks (Brown 2000). It is a standardized 9-item test that measures the patient's performance on functional tasks. Assistive devices are permitted for the tasks that require a standing position (items 6 to 9). Both the speed and accuracy at which the patients complete the items were taken into account during scoring. The maximum score of the test is 36, with higher scores indicating better performance.

patients with HD [4] = details: 45 mg bid; weeks 12 and 26 (Landwehrmeyer 2011); cited from earlier work

CCCN1CCC(c2cccc(S(C)(=O)=O)c2)CC1 [pridopidine, 4-[3-(methylsulfonyl)phenyl]-1-propyl-piperidine]
Change from baseline in UHDRS Total Functional Assessment, Δ to placebo (patients with HD [1]; 45 mg bid, ALL): 0.02 | Change from baseline in UHDRS Total Functional Assessment, Δ to placebo (patients with HD [1]; 45 mg bid, Stage 1 BL TFC 11-13): 1.23 | Change from baseline in UHDRS Total Functional Assessment, Δ to placebo (patients with HD [1]; 67.5 mg bid, ALL): 0.09 | Change from baseline in UHDRS Total Functional Assessment, Δ to placebo (patients with HD [1]; 67.5 mg bid, Stage 1 BL TFC 11-13): 1.08 | Change from baseline in UHDRS Total Functional Assessment, Δ to placebo (patients with HD [1]; 90 mg bid, ALL): −0.41 | Change from baseline in UHDRS Total Functional Assessment, Δ to placebo (patients with HD [1]; 90 mg bid, Stage 1 BL TFC 11-13): 0.87 | Change from baseline in UHDRS Total Functional Assessment, Δ to placebo (patients with HD [1]; 112.5 mg bid, ALL): −0.1 | Change from baseline in UHDRS Total Functional Assessment, Δ to placebo (patients with HD [1]; 112.5 mg bid, Stage 1 BL TFC 11-13): 1.33 | Wk 52 Δ to placebo: UHDRS TMS Gait (patients with HD [2]; 45 mg bid): −0.21 | Wk 52 Δ to placebo: UHDRS TMS Gait (patients with HD [2]; 67.5 mg bid): −0.17 | Wk 52 Δ to placebo: UHDRS TMS Gait (patients with HD [2]; 90 mg bid): −0.17 | Wk 52 Δ to placebo: UHDRS TMS Gait (patients with HD [2]; 112.5 mg bid): −0.06 | Δ to placebo: mPPT total score, change from baseline (patients with HD [3]; 45 mg bid, BL stage 3-5 (TFC 0-6), 26 weeks): 0.9 | Δ to placebo: mPPT total score, change from baseline (patients with HD [3]; 45 mg bid, BL stage 3-5, 52 weeks): 1.57 | Change from baseline in mPPT Total Score (patients with HD [3]; 45 mg bid, Full Analysis Set, after 52 weeks (FIG. 46a)): shows improvement on mPPT score | Δ to placebo: mPPT total score, change from baseline (patients with HD [3]; 45 mg bid, Full Analysis Set, week 26): 0.04 | Δ to placebo: mPPT total score, change from baseline (patients with HD [3]; 45 mg bid, Full Analysis Set, week 52): 0.46 | Δ to placebo: mPPT total score, change from baseline (patients with HD [3]; 45 mg bid, HD1 and HD2 patients, week 26): −0.24 | Δ to placebo: mPPT total score, change from baseline (patients with HD [3]; 45 mg bid, HD1 and HD2 patients, week 52): 0.15 | Δ to placebo: mPPT total score, change from baseline (patients with HD [3]; 45 mg bid, HD1 patients, 26 weeks): −1.31 | Δ to placebo: mPPT total score, change from baseline (patients with HD [3]; 45 mg bid, HD1 patients, 52 weeks): 0.76 | Δ to placebo: mPPT total score, change from baseline (patients with HD [3]; 45 mg bid, HD2 patients, 26 weeks): −0.07 | Δ to placebo: mPPT total score, change from baseline (patients with HD [3]; 45 mg bid, HD2 patients, 52 weeks): −0.39 | Δ to placebo: mPPT total score, change from baseline (patients with HD [3]; 45 mg bid, baseline TFC<7, week 26): 0.9 | Δ to placebo: mPPT total score, change from baseline (patients with HD [3]; 45 mg bid, baseline TFC<7, week 52): 1.57 | Δ to placebo: mPPT total score, change from baseline (patients with HD [3]; 67.5 mg bid, BL stage 3-5 (TFC 0-6), 26 weeks): −0.85 | Δ to placebo: mPPT total score, change from baseline (patients with HD [3]; 67.5 mg bid, BL stage 3-5, 52 weeks): −1.37 | Δ to placebo: mPPT total score, change from baseline (patients with HD [3]; 67.5 mg bid, Full Analysis Set, week 26): −0.07 | Δ to placebo: mPPT total score, change from baseline (patients with HD [3]; 67.5 mg bid, Full Analysis Set, week 52): 0.17 | Δ to placebo: mPPT total score, change from baseline (patients with HD [3]; 67.5 mg bid, HD1 and HD2 patients, week 26): 0.59 | Δ to placebo: mPPT total score, change from baseline (patients with HD [3]; 67.5 mg bid, HD1 and HD2 patients, week 52): 1.04 | Δ to placebo: mPPT total score, change from baseline (patients with HD [3]; 67.5 mg bid, HD1 patients, 26 weeks): −0.2 | Δ to placebo: mPPT total score, change from baseline (patients with HD [3]; 67.5 mg bid, HD1 patients, 52 weeks): 0.45 | Δ to placebo: mPPT total score, change from baseline (patients with HD [3]; 67.5 mg bid, HD2 patients, 26 weeks): 0.68 | Δ to placebo: mPPT total score, change from baseline (patients with HD [3]; 67.5 mg bid, HD2 patients, 52 weeks): 1 | Δ to placebo: mPPT total score, change from baseline (patients with HD [3]; 67.5 mg bid, baseline TFC<7, week 26): −0.85 | Δ to placebo: mPPT total score, change from baseline (patients with HD [3]; 67.5 mg bid, baseline TFC<7, week 52): −1.37 | Δ to placebo: mPPT total score, change from baseline (patients with HD [3]; 90 mg bid, BL stage 3-5 (TFC 0-6), 26 weeks): −0.73 | Δ to placebo: mPPT total score, change from baseline (patients with HD [3]; 90 mg bid, BL stage 3-5, 52 weeks): −2.73 | Δ to placebo: mPPT total score, change from baseline (patients with HD [3]; 90 mg bid, Full Analysis Set, week 26): −0.01 | Δ to placebo: mPPT total score, change from baseline (patients with HD [3]; 90 mg bid, Full Analysis Set, week 52): −0.33 | Δ to placebo: mPPT total score, change from baseline (patients with HD [3]; 90 mg bid, HD1 and HD2 patients, week 26): 0.46 | Δ to placebo: mPPT total score, change from baseline (patients with HD [3]; 90 mg bid, HD1 and HD2 patients, week 52): 0.88 | Δ to placebo: mPPT total score, change from baseline (patients with HD [3]; 90 mg bid, HD1 patients, 26 weeks): 0.81 | Δ to placebo: mPPT total score, change from baseline (patients with HD [3]; 90 mg bid, HD1 patients, 52 weeks): 1.11 | Δ to placebo: mPPT total score, change from baseline (patients with HD [3]; 90 mg bid, HD2 patients, 26 weeks): 0.35 | Δ to placebo: mPPT total score, change from baseline (patients with HD [3]; 90 mg bid, HD2 patients, 52 weeks): 0.71 | Δ to placebo: mPPT total score, change from baseline (patients with HD [3]; 90 mg bid, baseline TFC<7, week 26): −0.73 | Δ to placebo: mPPT total score, change from baseline (patients with HD [3]; 90 mg bid, baseline TFC<7, week 52): −2.73 | Δ to placebo: mPPT total score, change from baseline (patients with HD [3]; 112.5 mg bid, BL stage 3-5 (TFC 0-6), 26 weeks): −0.33 | Δ to placebo: mPPT total score, change from baseline (patients with HD [3]; 112.5 mg bid, BL stage 3-5, 52 weeks): −0.49 | Δ to placebo: mPPT total score, change from baseline (patients with HD [3]; 112.5 mg bid, Full Analysis Set, week 26): 0.29 | Δ to placebo: mPPT total score, change from baseline (patients with HD [3]; 112.5 mg bid, Full Analysis Set, week 52): −0.47 | Δ to placebo: mPPT total score, change from baseline (patients with HD [3]; 112.5 mg bid, HD1 and HD2 patients, week 26): 0.79 | Δ to placebo: mPPT total score, change from baseline (patients with HD [3]; 112.5 mg bid, HD1 and HD2 patients, week 52): −0.26 | Δ to placebo: mPPT total score, change from baseline (patients with HD [3]; 112.5 mg bid, HD1 patients, 26 weeks): 0.03 | Δ to placebo: mPPT total score, change from baseline (patients with HD [3]; 112.5 mg bid, HD1 patients, 52 weeks): 0.08 | Δ to placebo: mPPT total score, change from baseline (patients with HD [3]; 112.5 mg bid, HD2 patients, 26 weeks): 0.85 | Δ to placebo: mPPT total score, change from baseline (patients with HD [3]; 112.5 mg bid, HD2 patients, 52 weeks): −0.65 | Δ to placebo: mPPT total score, change from baseline (patients with HD [3]; 112.5 mg bid, baseline TFC<7, week 26): −0.33 | Δ to placebo: mPPT total score, change from baseline (patients with HD [3]; 112.5 mg bid, baseline TFC<7, week 52): −0.49 | TMS compared with placebo, pooled analysis of HART and MermaiHD (patients with HD [4]): significantly improved
